Experiment [1] has as its target Neuronal acetylcholine receptor subunit alpha-4 (Homo sapiens, UniProt P43681).
Experiment [2] addresses T1, Alpha-1A adrenergic receptor (Homo sapiens, UniProt P35348).
T1 sequence (P35348 whole entry): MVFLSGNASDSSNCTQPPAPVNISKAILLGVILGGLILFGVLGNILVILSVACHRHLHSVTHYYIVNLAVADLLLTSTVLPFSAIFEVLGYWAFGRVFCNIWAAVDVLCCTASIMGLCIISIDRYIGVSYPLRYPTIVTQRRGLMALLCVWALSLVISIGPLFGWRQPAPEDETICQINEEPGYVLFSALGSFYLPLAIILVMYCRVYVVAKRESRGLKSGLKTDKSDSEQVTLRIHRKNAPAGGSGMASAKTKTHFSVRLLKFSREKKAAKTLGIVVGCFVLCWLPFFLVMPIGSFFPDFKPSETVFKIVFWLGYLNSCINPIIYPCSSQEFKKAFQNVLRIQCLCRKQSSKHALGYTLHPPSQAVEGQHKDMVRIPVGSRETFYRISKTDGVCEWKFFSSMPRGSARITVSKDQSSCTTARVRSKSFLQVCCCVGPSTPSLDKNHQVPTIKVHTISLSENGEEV
In kind it is functional, cell-based.

In experiment [3] the target is T2, Type-1 angiotensin II receptor (Homo sapiens, UniProt P30556).
T2 sequence (P30556 whole entry): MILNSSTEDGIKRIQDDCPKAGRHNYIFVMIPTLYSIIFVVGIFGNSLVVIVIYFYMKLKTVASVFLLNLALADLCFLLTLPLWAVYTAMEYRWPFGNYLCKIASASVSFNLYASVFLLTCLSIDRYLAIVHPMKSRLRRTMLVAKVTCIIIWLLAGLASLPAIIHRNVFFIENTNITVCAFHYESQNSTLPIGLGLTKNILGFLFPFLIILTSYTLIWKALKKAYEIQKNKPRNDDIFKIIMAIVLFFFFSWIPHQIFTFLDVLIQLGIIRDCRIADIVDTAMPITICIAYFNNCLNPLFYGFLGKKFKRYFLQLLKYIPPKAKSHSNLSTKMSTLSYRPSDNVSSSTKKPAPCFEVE

Experiment [4] concerns the target 3',5'-cyclic-AMP phosphodiesterase 4D (Homo sapiens, UniProt Q08499). In kind it is functional.
A further experiment addresses Histamine H3 receptor (Homo sapiens, UniProt Q9Y5N1).
The target in experiment [5] is T3, 5-hydroxytryptamine receptor 3A (Homo sapiens, UniProt P46098).
T3 sequence (P46098 whole entry): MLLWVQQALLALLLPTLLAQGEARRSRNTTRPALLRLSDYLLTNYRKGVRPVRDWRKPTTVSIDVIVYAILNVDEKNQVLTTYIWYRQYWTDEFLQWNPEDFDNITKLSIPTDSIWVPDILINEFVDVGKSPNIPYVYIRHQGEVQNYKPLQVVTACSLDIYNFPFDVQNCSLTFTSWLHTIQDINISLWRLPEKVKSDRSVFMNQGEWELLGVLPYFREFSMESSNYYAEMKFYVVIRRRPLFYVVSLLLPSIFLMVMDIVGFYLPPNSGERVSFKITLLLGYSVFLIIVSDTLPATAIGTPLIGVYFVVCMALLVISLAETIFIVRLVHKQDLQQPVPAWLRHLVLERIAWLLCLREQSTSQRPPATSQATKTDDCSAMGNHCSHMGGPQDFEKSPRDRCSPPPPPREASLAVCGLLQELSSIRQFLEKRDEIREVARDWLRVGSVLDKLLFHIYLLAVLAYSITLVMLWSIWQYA
It is filed as functional.

In experiment [6] the target is T4, Muscarinic acetylcholine receptor M2 (Homo sapiens, UniProt P08172).
T4 sequence (P08172 whole entry): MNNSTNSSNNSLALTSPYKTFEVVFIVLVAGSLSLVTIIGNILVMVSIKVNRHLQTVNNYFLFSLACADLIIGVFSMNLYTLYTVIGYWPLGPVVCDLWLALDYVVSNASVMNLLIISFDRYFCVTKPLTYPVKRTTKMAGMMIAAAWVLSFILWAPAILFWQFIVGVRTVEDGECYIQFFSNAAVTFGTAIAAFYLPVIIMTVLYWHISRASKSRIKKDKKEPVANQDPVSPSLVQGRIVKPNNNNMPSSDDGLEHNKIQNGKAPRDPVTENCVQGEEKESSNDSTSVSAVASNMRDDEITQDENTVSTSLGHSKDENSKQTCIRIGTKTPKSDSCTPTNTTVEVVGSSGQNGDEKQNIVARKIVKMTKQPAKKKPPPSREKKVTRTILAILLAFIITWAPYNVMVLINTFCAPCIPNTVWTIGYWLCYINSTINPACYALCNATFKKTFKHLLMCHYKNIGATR
It is filed as functional, cell-based.

Another experiment concerns the target Vasopressin V1a receptor (Homo sapiens, UniProt P37288).
Experiment [7] addresses T1, Alpha-1A adrenergic receptor. It is filed as functional, cell-based. The source holds these as a separate data set.
In experiment [8] the target is Gamma-aminobutyric acid receptor subunit alpha-1 (Rattus norvegicus, UniProt P62813). It is filed as functional.
A further experiment addresses T5, Endothelin-1 receptor (Homo sapiens, UniProt P25101).
T5 sequence (P25101 whole entry): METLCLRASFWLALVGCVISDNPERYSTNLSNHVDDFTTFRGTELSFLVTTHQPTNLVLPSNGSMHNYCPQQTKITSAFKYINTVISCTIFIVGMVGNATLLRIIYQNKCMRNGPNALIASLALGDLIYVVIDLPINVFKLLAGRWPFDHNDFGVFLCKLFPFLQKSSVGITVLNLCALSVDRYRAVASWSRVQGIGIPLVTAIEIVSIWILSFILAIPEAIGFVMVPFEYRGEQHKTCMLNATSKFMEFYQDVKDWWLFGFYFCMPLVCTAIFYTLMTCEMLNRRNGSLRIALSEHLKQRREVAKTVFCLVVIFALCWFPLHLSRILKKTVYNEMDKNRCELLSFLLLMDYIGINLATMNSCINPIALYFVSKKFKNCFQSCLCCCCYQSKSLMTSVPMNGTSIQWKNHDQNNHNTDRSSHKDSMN

The target of another experiment is Cannabinoid receptor 1 (Homo sapiens, UniProt P21554). It is filed as functional, cell-based.

Bounds are passed on as bounds.
Further: assay procedure not described here.

Sequence of Gamma-aminobutyric acid receptor subunit alpha-1 (P62813 whole entry): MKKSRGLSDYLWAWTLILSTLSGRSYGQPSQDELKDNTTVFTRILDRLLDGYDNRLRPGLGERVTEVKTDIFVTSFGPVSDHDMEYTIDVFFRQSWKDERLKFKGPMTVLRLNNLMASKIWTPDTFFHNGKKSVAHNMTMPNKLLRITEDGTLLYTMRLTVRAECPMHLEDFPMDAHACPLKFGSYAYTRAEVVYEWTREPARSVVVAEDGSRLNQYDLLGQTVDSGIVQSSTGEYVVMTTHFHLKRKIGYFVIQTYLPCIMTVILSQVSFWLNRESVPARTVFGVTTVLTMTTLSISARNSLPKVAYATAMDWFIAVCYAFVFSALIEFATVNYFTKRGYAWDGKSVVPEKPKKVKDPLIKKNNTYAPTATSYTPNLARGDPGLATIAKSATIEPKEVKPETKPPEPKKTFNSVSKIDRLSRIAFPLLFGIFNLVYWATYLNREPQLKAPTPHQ
Sequence of 3',5'-cyclic-AMP phosphodiesterase 4D (Q08499 whole entry): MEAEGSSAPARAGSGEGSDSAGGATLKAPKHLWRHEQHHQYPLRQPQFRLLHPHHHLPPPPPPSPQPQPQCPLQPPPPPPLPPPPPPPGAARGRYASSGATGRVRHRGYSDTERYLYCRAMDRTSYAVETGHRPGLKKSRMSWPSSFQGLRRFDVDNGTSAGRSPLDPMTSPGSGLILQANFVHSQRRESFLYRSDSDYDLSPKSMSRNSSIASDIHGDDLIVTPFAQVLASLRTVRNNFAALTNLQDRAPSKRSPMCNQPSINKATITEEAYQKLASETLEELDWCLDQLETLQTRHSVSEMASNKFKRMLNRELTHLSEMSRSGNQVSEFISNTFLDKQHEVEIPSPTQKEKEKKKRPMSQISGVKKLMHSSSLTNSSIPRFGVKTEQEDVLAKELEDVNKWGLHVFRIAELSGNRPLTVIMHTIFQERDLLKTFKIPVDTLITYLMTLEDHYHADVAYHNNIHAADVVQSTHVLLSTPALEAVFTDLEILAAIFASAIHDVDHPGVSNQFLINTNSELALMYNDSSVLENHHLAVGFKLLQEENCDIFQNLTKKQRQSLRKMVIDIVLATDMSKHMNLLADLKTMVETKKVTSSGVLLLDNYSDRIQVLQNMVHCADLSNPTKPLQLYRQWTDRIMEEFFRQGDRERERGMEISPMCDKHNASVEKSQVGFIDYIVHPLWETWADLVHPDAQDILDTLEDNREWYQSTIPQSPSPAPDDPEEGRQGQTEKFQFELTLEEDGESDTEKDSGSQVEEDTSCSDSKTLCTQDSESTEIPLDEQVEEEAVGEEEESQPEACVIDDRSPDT
Sequence of Vasopressin V1a receptor (P37288 whole entry): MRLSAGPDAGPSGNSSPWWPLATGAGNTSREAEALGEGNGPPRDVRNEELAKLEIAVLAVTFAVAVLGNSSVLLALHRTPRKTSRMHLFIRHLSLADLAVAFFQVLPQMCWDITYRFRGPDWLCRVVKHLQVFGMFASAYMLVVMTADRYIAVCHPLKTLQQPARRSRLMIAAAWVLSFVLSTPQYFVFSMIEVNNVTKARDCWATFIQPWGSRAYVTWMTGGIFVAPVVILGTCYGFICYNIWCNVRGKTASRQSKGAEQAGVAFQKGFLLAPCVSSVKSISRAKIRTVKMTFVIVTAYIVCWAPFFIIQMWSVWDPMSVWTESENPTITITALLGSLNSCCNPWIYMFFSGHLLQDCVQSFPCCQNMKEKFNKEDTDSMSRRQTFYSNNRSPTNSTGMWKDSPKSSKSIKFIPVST
Sequence of Cannabinoid receptor 1 (P21554 whole entry): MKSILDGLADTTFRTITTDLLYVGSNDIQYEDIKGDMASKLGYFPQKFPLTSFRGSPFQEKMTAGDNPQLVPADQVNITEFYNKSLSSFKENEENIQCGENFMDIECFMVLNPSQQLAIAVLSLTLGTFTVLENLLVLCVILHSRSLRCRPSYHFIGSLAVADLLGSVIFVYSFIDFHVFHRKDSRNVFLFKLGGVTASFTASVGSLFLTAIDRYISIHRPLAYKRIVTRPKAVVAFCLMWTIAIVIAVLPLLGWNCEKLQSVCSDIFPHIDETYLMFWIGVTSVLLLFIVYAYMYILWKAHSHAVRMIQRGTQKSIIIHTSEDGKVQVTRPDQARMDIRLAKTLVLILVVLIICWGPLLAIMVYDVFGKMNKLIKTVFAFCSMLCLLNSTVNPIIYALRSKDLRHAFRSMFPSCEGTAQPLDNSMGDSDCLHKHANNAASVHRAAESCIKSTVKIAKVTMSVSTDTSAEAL
Sequence of Neuronal acetylcholine receptor subunit alpha-4 (P43681 whole entry): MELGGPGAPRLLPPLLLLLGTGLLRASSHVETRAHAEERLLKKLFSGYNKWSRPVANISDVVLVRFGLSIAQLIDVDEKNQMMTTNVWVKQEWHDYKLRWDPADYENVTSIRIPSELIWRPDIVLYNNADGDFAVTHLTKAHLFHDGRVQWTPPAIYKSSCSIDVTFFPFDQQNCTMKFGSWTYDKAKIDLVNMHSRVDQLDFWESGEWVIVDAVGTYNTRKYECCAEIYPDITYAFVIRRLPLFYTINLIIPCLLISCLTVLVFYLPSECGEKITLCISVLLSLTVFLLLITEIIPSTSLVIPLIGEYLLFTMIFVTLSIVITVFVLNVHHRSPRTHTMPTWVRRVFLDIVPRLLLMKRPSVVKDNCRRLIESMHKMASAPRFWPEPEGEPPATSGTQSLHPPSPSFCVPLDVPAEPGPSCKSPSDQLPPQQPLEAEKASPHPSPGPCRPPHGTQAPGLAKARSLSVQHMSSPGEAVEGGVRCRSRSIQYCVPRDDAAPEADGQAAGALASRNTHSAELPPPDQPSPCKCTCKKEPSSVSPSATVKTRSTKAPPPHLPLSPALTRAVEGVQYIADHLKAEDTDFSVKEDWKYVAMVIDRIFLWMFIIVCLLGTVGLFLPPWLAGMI
Sequence of Histamine H3 receptor (Q9Y5N1 whole entry): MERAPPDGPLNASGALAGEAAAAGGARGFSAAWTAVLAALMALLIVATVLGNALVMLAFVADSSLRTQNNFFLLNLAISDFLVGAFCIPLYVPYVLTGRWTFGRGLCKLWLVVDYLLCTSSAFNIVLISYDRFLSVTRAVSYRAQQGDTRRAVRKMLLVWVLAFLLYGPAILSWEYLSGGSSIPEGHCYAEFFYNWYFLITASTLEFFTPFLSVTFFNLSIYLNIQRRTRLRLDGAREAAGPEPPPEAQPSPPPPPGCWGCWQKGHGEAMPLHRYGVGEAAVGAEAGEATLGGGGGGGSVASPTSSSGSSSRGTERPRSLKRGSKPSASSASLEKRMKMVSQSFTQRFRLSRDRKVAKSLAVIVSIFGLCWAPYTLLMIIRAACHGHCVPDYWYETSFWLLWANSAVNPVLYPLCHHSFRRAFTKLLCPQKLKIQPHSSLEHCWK

On to `COc1ccc(CC2c3cc(OC)c(OC)cc3CC[N+]2(C)CCC(=O)OCCCCCOC(=O)CC[N+]2(C)CCc3cc(OC)c(OC)cc3C2Cc2ccc(OC)c(OC)c2)cc1OC` (configuration not stated), for which the AC50 in [1] was 3.63 µM; in experiment [2], more than 30 µM; in [3] it was more than 30 µM; in experiment [4] it was more than 30 µM; at Histamine H3 receptor, more than 30 µM; in experiment [5], more than 30 µM. Besides, the concentration at half-maximal activity (AC50) is more than 30 µM in experiment [6], more than 30 µM at Vasopressin V1a receptor, 12 µM in experiment [7] and more than 30 µM in experiment [8].

Take `CC(C(=O)O)c1ccc2c(c1)[nH]c1ccc(Cl)cc12` (configuration not stated) [CARPROFEN]: the half-maximal activity concentration (AC50) is more than 30 µM in [1]; more than 30 µM in [3]; 5.2 µM in [4]; more than 30 µM on Histamine H3 receptor; more than 10 µM on Endothelin-1 receptor; more than 30 µM in experiment [5]. Also, the half-maximal activity concentration (AC50) in experiment [6] was more than 10 µM; on Vasopressin V1a receptor, more than 30 µM; in experiment [8], more than 10 µM.

On to `COc1ccccc1OCCNCC(O)COc1cccc2[nH]c3ccccc3c12` (configuration not stated) [CARVEDILOL], for which the half-maximal activity concentration (AC50) is more than 30 µM in [1]; more than 30 µM in experiment [2]; 0.255 µM in [3]; more than 10 µM in experiment [4]; more than 30 µM on Histamine H3 receptor; more than 30 µM on Endothelin-1 receptor. Moreover, the concentration at half-maximal activity (AC50) at Cannabinoid receptor 1 is more than 30 µM; in [5] it was more than 10 µM; in experiment [6] it was more than 10 µM; at Vasopressin V1a receptor, more than 30 µM; in experiment [7] it was 0.3 µM; in [8], more than 10 µM.

With `O=C1CN(/N=C/c2ccc(-c3ccc([N+](=O)[O-])cc3)o2)C(O)=N1` [DANTROLENE], the AC50 in experiment [1] was more than 10 µM; in experiment [3], more than 10 µM; in experiment [4], more than 30 µM; in experiment [5], more than 30 µM; in [6] it was more than 10 µM; on Vasopressin V1a receptor, more than 10 µM. The concentration at half-maximal activity (AC50) in experiment [8] was more than 10 µM.

As for `CN(C)CC[C@@H](c1ccc(Cl)cc1)c1ccccn1` [DEXCHLORPHENIRAMINE], the AC50 in experiment [1] was more than 30 µM; in experiment [2], more than 30 µM; in experiment [3], more than 30 µM; in experiment [4] it was more than 10 µM; on Histamine H3 receptor, 6.3 µM; at Endothelin-1 receptor, more than 30 µM. The AC50 on Cannabinoid receptor 1 is more than 30 µM; in experiment [5], more than 30 µM; in [6] it was 26 µM; on Vasopressin V1a receptor it was more than 30 µM; in experiment [7] it was more than 30 µM; in experiment [8], more than 30 µM.

For the molecule `C[C@]12C=CC(=O)N[C@@H]1CC[C@@H]1[C@@H]2CC[C@]2(C)[C@@H](C(=O)Nc3cc(C(F)(F)F)ccc3C(F)(F)F)CC[C@@H]12` [DUTASTERIDE], the AC50 was more than 10 µM in experiment [1]; more than 30 µM in [2]; more than 30 µM in experiment [3]; more than 30 µM in experiment [4]; more than 30 µM on Cannabinoid receptor 1; more than 30 µM in experiment [5]. For the same molecule, the AC50 was more than 10 µM in experiment [6], more than 10 µM at Vasopressin V1a receptor, more than 30 µM in experiment [7] and more than 30 µM in experiment [8].

For `CN1C[C@H](C(=O)N[C@]2(C)O[C@@]3(O)[C@@H]4CCCN4C(=O)[C@H](Cc4ccccc4)N3C2=O)C=C2c3cccc4[nH]cc(c34)C[C@H]21` [ERGOTAMINE], the AC50 in [1] is more than 30 µM; in experiment [2], 3.1 µM; in experiment [3] it was more than 30 µM; in experiment [4], more than 30 µM; on Histamine H3 receptor it was more than 30 µM; on Endothelin-1 receptor, more than 30 µM. The AC50 (on Cannabinoid receptor 1; in experiment [5]; in [6]; at Vasopressin V1a receptor; in [8]) was more than 30 µM in each case.

With `CN1C(C(=O)Nc2ccccn2)=C(O)c2ccccc2S1(=O)=O` [PIROXICAM], the concentration at half-maximal activity (AC50) in [1] was more than 10 µM; in experiment [3], more than 30 µM; in experiment [4], more than 30 µM; in experiment [5], more than 30 µM; in [6], more than 10 µM; at Vasopressin V1a receptor, more than 10 µM. The molecule also returned a half-maximal activity concentration (AC50) in experiment [8] of more than 10 µM.

On to `CC(N)C12CC3CC(CC(C3)C1)C2` (configuration not stated) [RIMANTADINE], for which the AC50 is more than 10 µM in experiment [1]; more than 10 µM in experiment [3]; more than 30 µM in [4]; more than 30 µM in [5]; more than 10 µM in experiment [6]; more than 10 µM in experiment [8].

As for `CCN(CC)CCNC(=O)c1c(C)[nH]c(/C=C2\C(=O)Nc3ccc(F)cc32)c1C` [SUNITINIB], the AC50 in experiment [1] is 7.3 µM; in experiment [3], 4.3 µM; in experiment [4], 9.8 µM; at Histamine H3 receptor it was 0.88 µM; at Endothelin-1 receptor, 8.3 µM; at Cannabinoid receptor 1, more than 30 µM. For the same molecule, the half-maximal activity concentration (AC50) in [6] was more than 10 µM; at Vasopressin V1a receptor, more than 10 µM; in experiment [8], more than 30 µM.

On to `COc1cc2nc(N3CCN(C(=O)C4CCCO4)CC3)nc(N)c2cc1OC` (configuration not stated) [TERAZOSIN], for which the AC50 is more than 10 µM in experiment [1]; more than 30 µM in [3]; more than 30 µM in experiment [4]; more than 10 µM on Histamine H3 receptor; more than 30 µM at Endothelin-1 receptor; more than 30 µM at Cannabinoid receptor 1. For the same molecule, the half-maximal activity concentration (AC50) (in [5]; in experiment [6]; at Vasopressin V1a receptor; in [8]) was more than 10 µM each time.

As for `CC(C)(C)NCC(O)c1cc(O)cc(O)c1` (configuration not stated) [TERBUTALINE], the half-maximal activity concentration (AC50) (in experiment [1]; in experiment [3]; at Histamine H3 receptor; at Endothelin-1 receptor; on Vasopressin V1a receptor) was more than 30 µM in each case.

Take `CCCC(CCC)C(=O)O` [VALPROIC ACID]: the AC50 in experiment [1] was more than 10 µM; in experiment [3], more than 30 µM; in [4], more than 30 µM; at Histamine H3 receptor, more than 10 µM; on Endothelin-1 receptor, more than 30 µM; in [5] it was more than 30 µM. For the same molecule, the AC50 in experiment [6] is more than 10 µM; on Vasopressin V1a receptor, more than 30 µM; in [8], more than 10 µM.

The record behind these values is ChEMBL document CHEMBL5291721, “A preclinical secondary pharmacology resource illuminates target-adverse drug reaction associations of marketed drugs” (Nat Commun, 2023).
